# Test results from patent US10835513B2, “Methods and treatments for the learning and memory deficits associated with Noonan syndrome” (The Regents of the University of California, priority 2013, dated 2020).
# How the values were obtained:
# Erk = assay: p-Erk immunoblot of Ptpn11^D61G/+ hippocampi after lovastatin injection; assay type: in vivo, mice
# Experimental: (§1) FIG. 6 are graphs showing that Lovastatin treatment reverses spatial learning and memory and LTP deficits in Ptpn11^D61G/+ mice. […] Left, Representative immunoblot showing p-Erk (upper) and total Erk (lower) levels in Ptpn11^D61G/+ mice and WT. Hippocampi were dissected 6 hr after the 4th day of lovastatin injection (subcutaneous (s.c.) injections, 10 mg/kg). Right, Bar graph displaying normalized p-Erk levels (mean±s.e.m.). n=7-8 per group. t-test, *P<0.05. […] Two-way ANOVA followed by Bonferroni post-test, WT/Veh vs. Ptpn11^D61G/+/Veh, *P<0.05, **P<0.01; Ptpn11^D61G/+/Veh vs. Ptpn11^D61G/+/Lova, +P<0.05. […] Two-way ANOVA with genotype as between-subjects factor and drug treatment as within-subjects factor, effect of genotype: F(1, 45)=19.79, ***P<0.0001, interaction: F (1,45)=0.4489, P=0.506.
# As in AAV-PTPN11^D61G-infected mice, p-Erk levels were increased in Ptpn11^D61G/+ hippocampi (FIG. 6, panel a). […] Importantly, the spatial learning performance of lovastatin-treated Ptpn11^D61G/+ mice was indistinguishable from controls (FIG. 6, panels d, e).
# Dissected hippocampi were homogenized in protein lysis buffer (10 mM Tris-Cl pH 6.8, 1.6% SDS) containing protease and phosphatase inhibitor cocktails (Sigma). Supernatants were collected after centrifugation and the protein concentration was determined using a BCA assay kit (Thermo). […]
# Ptpn11^D61G/+ mice = assay: Morris water maze (hidden platform) in Ptpn11^D61G/+ mice treated with lovastatin; assay type: in vivo
# Experimental: as §1
# SL327 (Tocris) was dissolved in DMSO (16 mg/ml) and was injected intraperitoneally once daily, 30 min before the water maze experiment at a dose of 32 mg/kg. The volume of a single injection was under 80 μl. Lovastatin (Mevinolin, Sigma) was prepared as previously described^21. Briefly, lovastatin was dissolved in ethanol (final concentration of 8%) and 1N NaOH was added to convert mevinolin to the sodium salt. The pH of the final solution (4 mg/ml) was adjusted to 7.5 with HCl. The Vehicle solution was prepared with the same procedure. Lovastatin was administered daily (subcutaneous injection, 10 mg/kg) for 3 days before the first training day of the water maze and 6 hr before training every day thereafter.
# In the hidden platform-version of Morris water maze, mice were trained with two blocks of 2 trials (ITI=1 min) spaced about 45 min apart. In each training trial, mice were released from a different starting position and then were allowed to search for the escape platform for 60 s. The platform was submerged 1 cm under the surface of the water. Once a mouse found the platform, it was left there for 15 s. […] Mice were trained for 5-7 consecutive days. Memory was assessed in probe trials that were given after completion of training as described in the main text. During the probe trial, the platform was removed and the mice were allowed to search for it for 60 s. Data were acquired and analyzed using WaterMaze software (Actimetrics).
# [1] = tested on: hippocampal slices of Ptpn11^D61G/+ mice; assay: 5 TBS-induced LTP in hippocampal slices after systemic administrations of lovastatin; assay type: in vivo
# Experimental: FIG. 6 are graphs showing that Lovastatin treatment reverses spatial learning and memory and LTP deficits in Ptpn11^D61G/+ mice. […] Left, Representative immunoblot showing p-Erk (upper) and total Erk (lower) levels in Ptpn11^D61G/+ mice and WT. Hippocampi were dissected 6 hr after the 4th day of lovastatin injection (subcutaneous (s.c.) injections, 10 mg/kg). Right, Bar graph displaying normalized p-Erk levels (mean±s.e.m.). n=7-8 per group. t-test, *P<0.05. […] Two-way ANOVA followed by Bonferroni post-test, WT/Veh vs. Ptpn11^D61G/+/Veh, *P<0.05, **P<0.01; Ptpn11^D61G/+/Veh vs. Ptpn11^D61G/+/Lova, +P<0.05. […]
# For extracellular recordings of field excitatory postsynaptic potentials (fEPSP), sagittal slices (400 μm) were prepared with a vibratome (VT1000S, Leica) in ice-cold artificial cerebrospinal fluid (ACSF). […] Recording was performed in a submerged chamber perfused with ACSF (32° C.). fEPSPs were recorded with platinum-iridium electrodes placed in the CA1 stratum radiatum. […] Baseline responses were measured with stimulation (0.017 Hz, 0.1 ms pulse duration) at an intensity (typically 20-30 μA) that evoked a response that was approximately one third of the maximum evoked response. […] Initial fEPSP slopes were measured and normalized to the average of baseline (Clampfit 10.2).
# Nf1^+/− mutant mice = settings: previous study (ref. 21); cited from earlier work
# [2] = Ptpn11^D61G/+ mice, lovastatin 10 mg/kg s.c.
smiles,measurement,setting,value
CC[C@H](C)C(=O)O[C@H]1C[C@@H](C)C=C2C=C[C@H](C)[C@H](CC[C@@H]3C[C@@H](O)CC(=O)O3)[C@H]21 [Lovastatin],normalized p-Erk levels in hippocampi,"Erk; Ptpn11^D61G/+ hippocampi, 6 hr after the 4th day of lovastatin s.c. 10 mg/kg",reverses increased Erk activation
same,Erk activation in hippocampi,"Erk; WT controls, lovastatin s.c. 10 mg/kg",did not affect Erk activation in controls
same,"proximity to the target platform, probe trial",Ptpn11^D61G/+ mice; [2],39.82±2.53 cm
same,"time in the target quadrant, probe trial",Ptpn11^D61G/+ mice; [2],45.70±4.43%
same,latency to the hidden platform during training sessions,"Ptpn11^D61G/+ mice; Ptpn11^D61G/+ mice, lovastatin 10 mg/kg s.c. daily",comparable latency to WT mice
same,"preference for the target quadrant, quadrant occupancy analysis","Ptpn11^D61G/+ mice; Ptpn11^D61G/+/Lova group, TQ vs. other quadrants",selectively searched for the target quadrant
same,any measure of learning in WT animals,"Ptpn11^D61G/+ mice; WT animals, lovastatin at the concentration used (10 mg/kg)",had no effect on any measure of learning
same,"proximity to the target platform, probe trial","Ptpn11^D61G/+ mice; WT mice, lovastatin 10 mg/kg s.c.",35.28±3.26 cm
same,"Average % fEPSP changes (last 10 minutes of recordings), 5 TBS-induced LTP",[1]; Ptpn11^D61G/+ mice,154.2±6.88%
same,"Average % fEPSP changes (last 10 minutes of recordings), 5 TBS-induced LTP",[1]; WT mice,150.7±5.49%
same,"spatial learning problems, attention deficits and pre-pulse inhibition deficits",Nf1^+/− mutant mice,can rescue
